Results on two compounds are retold here after patent US6916805B2, “Quinoxalinones as serine protease inhibitors” (Warner-Lambert Company LLC, priority 1998, dated 2005).

Each structure is given as a SMILES string.

For one assay, the system named is human trypsin. As to the kind of experiment: Trypsin IC50, cleavage of S2222. The format is biochemical. As for the experimental part:
The ability of compounds to act as inhibitors of human trypsin catalytic activity is assessed by determination of that concentration of test substance that inhibits by 50% (IC50) the ability of human trypsin to cleave the chromogenic substrate S2222 (N-Bz-L-Ile-L-Glu-L-Gly-L-Arg-p-nitroanilide. HCl, DiaPharma). Typically, 145 μL human trypsin (0.5 nM final) in 10 mM HEPES, 150 mM NaCl, 0.1% BSA, and 5 μL of the test substance in DMSO (2% final) are incubated for 60 minutes at room temperature. Following preheating to 37° C. for 5 minutes, to this mixture is added 100 μL of S2222 in HBSA buffer (100 μM final), and the velocity of S2222 hydrolysis is determined at 37° C. by measuring the optical density at OD405 nm every 10 seconds over 5 minutes using a ThermoMax® Kinetic Microplate Reader.

In assay [1] the target is T1, human tissue factor/factor VIIa complex (Homo sapiens, UniProt P08709).
T1 construct: 50 μL human factor VIIa (Enzyme Research Laboratories); purchased Enzyme Research Laboratories (factor VIIa); American Diagnostica (recombinant tissue factor)
Description: Tissue factor/factor VIIa inhibition, cleavage of Spectrozyme VIIa. The format is biochemical. The conditions noted are these: read-out: VIIa % inhib. @ 100 μM. As for the experimental part: The ability of compounds to act as inhibitors of the catalytic activity of human tissue factor/factor VIIa complex is assessed by determination of that concentration of test substance that inhibits by 50% (IC50 the ability of a complex of human recombinant tissue factor/factor VIIa to cleave the chromogenic substrate Spectrozyme VIIa (CH3SO2-D-CHA-Arg-pNA*AcOH, American Diagnostica). Typically, 50 μL human factor VIIa (Enzyme Research Laboratories) is incubated for 10 minutes as a 1:1 mixture (5 nM final each) with 95 μL recombinant human tissue factor (American Diagnostica) in a modified HBSA buffer (10 mM Hepes, 5 mM CaCl2, 0.1% BSA, pH 8.0). Then, 5 μL of the test substance in DMSO (2% final) is added and incubated for 60 minutes at room temperature. Following preheating to 37° C. for 5 minutes, to this mixture is added 100 μL of Spectrozyme VIIa (500 μM final) in modified HBSA, and the velocity of Spectrozyme VIIa hydrolysis is determined at 37° C. by measuring the optical density at an OD405 nm every 10 seconds over 5 minutes using a ThermoMax® Kinetic Microplate Reader.

Another assay concerns the target T2, human thrombin (Homo sapiens, UniProt P00734).
T2 construct: purchased Enzyme Research Laboratories
Description: Thrombin IC50, cleavage of Chromozym TH. Type of assay: biochemical. As for the experimental part:
The ability of compounds to act as inhibitors of human thrombin catalytic activity is assessed by determination of that concentration of test substance that inhibits by 50% (IC50) the ability of human thrombin to cleave the chromogenic substrate Chromozym TH (Tosyl-Gly-Pro-Arg-pNA*Ac, Boehringer Mannheim). Typically, 145 μL human thrombin (0.75 nM, Enzyme Research Laboratories) in a HPB buffer (10 mM HEPES, 100 mM NaCl, 0.05% BSA, 0.1% PEG-8000, pH 7.4) and 5 μL of test substance in DMSO (2% final) are incubated for 60 minutes at room temperature. Following preheating to 37° C. for 5 minutes, to this mixture is added 100 μL of Chromozym TH in HPB buffer. The velocity of Chromozym TH hydrolysis is determined at 37° C. by measuring the initial rate of change of the optical density at OD405 nm every 10 seconds for 5 minutes using a ThermoMax® Kinetic Microplate Reader.

For assay [2], the system named is dog electrolytic injury model of thrombosis. Description: Dog electrolytic injury model of thrombosis. Type of assay: in vivo. An excerpt:
The effects of Example 2 on thrombosis and hemostasis has been studied in a dog electrolytic injury model of thrombosis. In this model, the thrombosis influencing event is an electrical current is applied to the femoral vein (or artery) by applying an anodal direct current (300 uA) to the intimal surface of the vessel in the presence of restricted blood flow (Goldblatt clamps placed around the vessel). The end points of the experiment are the time to occlusion (TTO) and thrombus weight. […] In the highest dose group, TTO was increased to near maximal effect of 240 minutes in both arteries and veins. The net thrombus weight was reduced from 50 mg to 18 mg [artery] and 110 mg to 15 mg [vein] in the highest dose group. Example 2, at the highest dose, prolonged aPTT, PT, by 1.4-, and 1.75-fold, respectively.

Assay [3] deals with pooled plasma from human volunteers. Description: In vitro diluted prothrombin time (dPT) assay. The format is biochemical. On the procedure:
Rat, rabbit, dog, and human blood (typically 1.8 mL) was collected and added to a sodium citrate solution (3.8%) to afford a 1:10 dilution. After centrifugation (2000 g for 10 minutes), the blood plasma was stored at −70° C. to 0° C. Conventional prothrombin time (PT) tests were carried out in the presence of various concentrations of test compound and the concentration of test compound required to double the clotting time determined. Typically, the test compound (50 μL volume of varying concentrations 0.1 μM to 1000 μM) and blood plasma (100 μL volume) were incubated at 37° C. for 10 minutes, and then tissue thromboplastin, typically Neoplastine from American Bioproducts, with calcium was added. Fibrin formation and the time required for a clot to form were determined using an automated ST4 Clot Detection System in duplicate.
The effects of Example 2 on dPT were evaluated using pooled plasma from human volunteers.

The target of assay [4] is T3, human prothrombinase (PTase) complex (Homo sapiens, UniProt P00742).
T3 construct: 2.5 pM human factor Xa (Enzyme Research Laboratories); purchased Enzyme Research Laboratories
As to the kind of experiment: In vitro assay for human prothrombinase. The format is biochemical. The following applies: PTase activity expressed by thrombin activity. As for the experimental part:
For determination of IC50 (PTase) of the compounds of the invention, PTase activity was expressed by thrombin activity.
PTase reaction was performed in 100 μL of mixture containing PTase (20 μM) PCPS (Avanti Polar Lipids following a procedure modified from Barenholz et al., Biochemistry, 1977;16:2806-2810) in a 30:70 ratio, 2.5 nM human factor Va (Enzyme Research Laboratories), and 2.5 pM human factor Xa (Enzyme Research Laboratories) in modified HEPES buffer (10 mM Hepes, 150 mM NaCl, 0.1% PEG-8000, 0.05% BSA, 2.5 mM CaCl2, pH 7.4), 3 μM human prothrombin (Enzyme Research Laboratories) and varied concentrations of the test compounds (1 nM to 100 μM in DMSO, 2% final). Reaction was started by co-incubating PTase with test compound for 60 minutes at room temperature, followed by addition of prothrombin for 6 minutes at room temperature. Next, the reaction was quenched by the addition of 100 μL of 20 mM EDTA. Activity of the thrombin (product) is then measured in the presence of 50 μL S2238 (250 μM final, H-D-Phe-Pip-Arg-pNA*Ac, DiaPharma) as substrate by measuring the change at 37° C. in OD405 nm for 5 minutes at 10 second intervals using a ThermoMax® Kinetic Microplate Reader.

The next assay concerns the target T4, human factor Xa (Homo sapiens, UniProt P00742).
T4 construct: 145 μL human factor Xa (1 nM final, Enzyme Research Laboratories); purchased Enzyme Research Laboratories
Description: Factor Xa IC50, cleavage of chromogenic substrate S2765. Type of assay: biochemical. On the procedure: The ability of compounds to act as inhibitors of human factor Xa catalytic activity is assessed by determination of that concentration of test substance that inhibits by 50% (IC50) the ability of human factor Xa to cleave the chromogenic substrate S2765 (N-CBz-D-Arg-L-Gly-L-Arg-p-nitroanilide. 2HCl, DiaPharma). Typically, 145 μL human factor Xa (1 nM final, Enzyme Research Laboratories) in 10 mM HEPES, 150 mM NaCl, 0.1% BSA, pH 7.4 (HBSA buffer), and 5 μL of test substance in DMSO (2% final) are incubated for 60 minutes at room temperature. Following preheating to 37° C. for 5 minutes, to this mixture is added 100 μL of S2765 in HBSA buffer. The velocity of S2765 hydrolysis is determined at 37° C. by measuring the initial rate of change of the optical density at OD405 nm every 10 seconds for 5 minutes using a ThermoMax® Kinetic Microplate Reader.

In assay [5] the test system is rabbit veno-venous shunt model of thrombosis. As to the kind of experiment: Rabbit veno-venous shunt model of thrombosis. Type of assay: in vivo. As for the experimental part:
The effects of Example 2 on thrombosis and hemostasis has been studied in a rabbit veno-venous shunt model of thrombosis. In that model, a plastic shunt which contains cotton thread was inserted into abdominal vena cava and thrombus developed inside the shunt under control conditions. The end points of the experiment are the time to occlusion (TTO) and thrombus weight. Example 2 was given to the rabbit via jugular vein as a single bolus followed by constant infusion for 140 minutes. Three doses have been tested in a total of 15 rabbits (5 rabbits in each group): 30 μg/kg+1 μg/kg/min, 60 μg/kg+2 μg/kg/min, and 480 μg/kg+16 μg/kg/min. […] In the highest dose group, TTO was increased from 17 minutes under control condition to 100 minutes. The net thrombus weight was reduced from 50 to 20 mg in that group. Example 2, at the highest dose, prolonged aPTT, PT, by 5-, and 3.9-fold, respectively.

Where [6] appears, read: infusion 2.5, 5 and 10 μg/kg/min.
The mark [7] stands for this setting: three doses, bolus + infusion 140 minutes.

T1 sequence (P08709 213-466 limits assumed): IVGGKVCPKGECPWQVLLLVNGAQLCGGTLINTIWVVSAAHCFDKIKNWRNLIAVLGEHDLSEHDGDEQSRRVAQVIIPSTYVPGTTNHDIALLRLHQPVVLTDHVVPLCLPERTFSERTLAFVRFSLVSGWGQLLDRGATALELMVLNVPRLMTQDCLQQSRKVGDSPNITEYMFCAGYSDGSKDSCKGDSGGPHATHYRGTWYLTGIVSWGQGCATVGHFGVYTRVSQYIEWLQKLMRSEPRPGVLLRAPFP
T1 sequence (P08709 61-212 limits assumed): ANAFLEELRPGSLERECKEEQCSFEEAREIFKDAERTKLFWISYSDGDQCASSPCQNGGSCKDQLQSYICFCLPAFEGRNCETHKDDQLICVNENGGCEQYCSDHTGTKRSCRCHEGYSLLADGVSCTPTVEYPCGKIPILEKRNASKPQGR
T1 sequence (P13726 33-295 partner): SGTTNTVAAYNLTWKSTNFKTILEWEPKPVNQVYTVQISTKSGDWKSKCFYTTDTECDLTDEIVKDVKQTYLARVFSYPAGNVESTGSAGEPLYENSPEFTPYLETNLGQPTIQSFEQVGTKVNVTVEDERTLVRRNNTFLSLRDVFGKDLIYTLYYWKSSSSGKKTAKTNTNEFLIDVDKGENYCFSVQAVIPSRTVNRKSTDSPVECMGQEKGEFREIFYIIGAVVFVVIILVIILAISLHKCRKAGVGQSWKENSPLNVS
T4 sequence (P00742 235-488 limits assumed): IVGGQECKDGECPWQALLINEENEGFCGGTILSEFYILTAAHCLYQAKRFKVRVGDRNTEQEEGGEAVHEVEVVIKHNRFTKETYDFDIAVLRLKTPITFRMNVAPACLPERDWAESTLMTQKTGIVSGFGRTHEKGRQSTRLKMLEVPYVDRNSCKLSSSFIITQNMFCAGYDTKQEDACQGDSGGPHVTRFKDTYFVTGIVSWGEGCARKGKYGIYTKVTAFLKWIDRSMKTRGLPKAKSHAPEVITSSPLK
T4 sequence (P00742 41-179 limits assumed): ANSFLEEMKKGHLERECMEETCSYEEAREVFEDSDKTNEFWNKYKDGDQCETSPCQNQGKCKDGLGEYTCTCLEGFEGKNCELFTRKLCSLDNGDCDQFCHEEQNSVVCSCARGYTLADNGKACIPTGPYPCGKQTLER
T3 sequence (P00742 235-488 limits assumed): as the sequence (P00742 235-488 limits assumed) above
T3 sequence (P00742 41-179 limits assumed): as the sequence (P00742 41-179 limits assumed) above
T3 sequence (P12259 29-737 partner limits assumed): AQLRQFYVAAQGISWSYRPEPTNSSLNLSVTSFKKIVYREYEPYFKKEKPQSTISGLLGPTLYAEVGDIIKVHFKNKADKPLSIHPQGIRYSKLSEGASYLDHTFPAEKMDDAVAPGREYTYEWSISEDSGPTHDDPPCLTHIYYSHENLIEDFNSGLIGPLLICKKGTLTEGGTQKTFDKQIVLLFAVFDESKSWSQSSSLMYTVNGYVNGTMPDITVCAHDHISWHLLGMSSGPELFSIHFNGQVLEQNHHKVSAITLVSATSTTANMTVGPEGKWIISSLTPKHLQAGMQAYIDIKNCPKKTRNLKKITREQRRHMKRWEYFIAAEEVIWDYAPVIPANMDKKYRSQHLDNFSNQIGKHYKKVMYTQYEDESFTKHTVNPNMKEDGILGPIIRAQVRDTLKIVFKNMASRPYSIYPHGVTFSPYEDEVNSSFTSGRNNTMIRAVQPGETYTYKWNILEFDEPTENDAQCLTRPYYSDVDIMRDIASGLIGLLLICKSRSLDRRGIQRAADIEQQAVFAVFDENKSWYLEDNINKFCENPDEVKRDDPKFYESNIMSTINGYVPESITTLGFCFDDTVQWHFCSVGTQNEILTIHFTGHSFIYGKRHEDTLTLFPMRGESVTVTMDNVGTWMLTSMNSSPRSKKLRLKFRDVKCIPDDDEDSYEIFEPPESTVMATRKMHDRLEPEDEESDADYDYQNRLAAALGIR
T3 sequence (P12259 1574-2224 partner limits assumed): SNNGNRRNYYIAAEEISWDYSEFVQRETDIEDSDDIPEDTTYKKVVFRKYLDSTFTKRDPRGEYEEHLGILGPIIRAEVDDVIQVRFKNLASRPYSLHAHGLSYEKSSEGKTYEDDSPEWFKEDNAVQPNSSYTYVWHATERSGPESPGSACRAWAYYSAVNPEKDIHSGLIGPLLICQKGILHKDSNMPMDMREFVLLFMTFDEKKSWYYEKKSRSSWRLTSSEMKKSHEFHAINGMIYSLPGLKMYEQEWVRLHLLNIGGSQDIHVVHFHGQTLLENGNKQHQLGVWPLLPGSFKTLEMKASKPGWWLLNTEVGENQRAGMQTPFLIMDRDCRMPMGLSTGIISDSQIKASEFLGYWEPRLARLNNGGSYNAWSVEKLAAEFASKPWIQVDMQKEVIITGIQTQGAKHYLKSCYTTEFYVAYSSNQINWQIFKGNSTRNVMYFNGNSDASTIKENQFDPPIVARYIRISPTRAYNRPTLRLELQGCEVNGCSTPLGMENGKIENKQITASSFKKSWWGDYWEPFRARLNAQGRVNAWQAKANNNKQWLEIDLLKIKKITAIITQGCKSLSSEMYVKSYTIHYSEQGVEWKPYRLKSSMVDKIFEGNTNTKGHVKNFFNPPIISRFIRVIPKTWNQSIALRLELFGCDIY

Usually IC50 stands for the concentration needed to halve the response being measured. The low end stands for greater potency in that assay, the high end for weaker potency in that assay. Turning to `C[C@@H]1CCC[C@H](C)N1CCCCCn1c(=O)c(-c2cc(C(=N)N)ccc2O)nc2ccccc21` [Example 2, 3-(4-5-[(2R,6S)-2,6-dimethyltetrahydro-1(2H)-pyridinyl]pentyl-3-oxo-3,4-dihydro-2-quinoxalinyl)-4-hydroxybenzenecarboximidamide], the half-maximal inhibitory concentration (IC50) in the assay with human trypsin is 2450 nM; against human thrombin, 7020 nM; in assay [4] it was 1.5 nM; against human factor Xa it was 9 nM. The inhibition at 100 µM in assay [1] was determined as 13%. For the same compound, the “prolongation of PT” value in assay [2] (highest dose) is reported as 1.75 fold; in assay [5] (highest dose) it was 3.9 fold. Besides, the “prolongation of aPTT” value in assay [2] (highest dose) was 1.4 fold; in assay [5] (highest dose), 5 fold. The “time to occlusion (TTO)” value in assay [2] (highest dose 10 μg/kg/min infusion, both arteries and veins) is ~240 min; in assay [5] (highest dose 480 μg/kg + 16 μg/kg/min iv, control 17 minutes), 100 min. Further, the “net thrombus weight [artery]” value in assay [2] (highest dose 10 μg/kg/min, artery, control 50 mg) is 18 mg. Also, the “net thrombus weight [vein]” value in assay [2] (highest dose 10 μg/kg/min, vein, control 110 mg) was found to be 15 mg. Also, the “effect on net thrombus weight” value in assay [2] (setting [6]) and in assay [5] (setting [7]) was “reduced the net thrombus weight” each time. For the same compound, the “effect on time to occlusion” value in assay [2] (setting [6]) and in assay [5] (setting [7]) was “dose-dependently prolonged the time to occlusion” throughout. In addition, in assay [3], the “concentration which caused 2 fold prolongation of dPT” value was determined as 0.05 µM. In addition, the “fold increase in dPT” value in assay [3] (0.1 μM) was 3.2 fold. Besides, in assay [3] (over concentrations), the “effect on dPT” value was “concentration-dependently prolonged dPT”. The net thrombus weight in assay [5] (highest dose 480 μg/kg + 16 μg/kg/min iv, control 50 mg) worked out at 20 mg.

`C[C@@H]1CCC[C@H](C)N1CCCCCn1c(=O)c(-c2cccc(C(=N)N)c2)nc2ccccc21` [Example 1, 3-[3-(Amidino)phenyl]-1-{5-[(2R,6S)-2,6-dimethylhexahydro-1-pyridinyl]pentyl}-1,2-dihydro-2-quinoxalinone]: the half-inhibitory concentration (IC50) in the assay on human trypsin was 2030 nM; against human thrombin, 2960 nM; against human factor Xa, 65 nM. Besides, in assay [1], the inhibition at 100 µM was determined as 16%.
